Where two headings read alike, the source gives them in different places.
Columns and labels:
E. coli CsgA = biological target: T1, E. coli CsgA (Escherichia coli, UniProt P28307); assay: In vitro ThioflavinT assay of CsgA aggregation (CsgA ThT Assay); format: biochemical; conditions: for CsgA ThT Assay (10 μM CsgA) % Control AUC at 1005 minutes, 100 μM / CsgA ThT Assay (10 μM CsgA) % Control AUC at 1005 minutes, 25 μM: mean AUC as % of DMSO control; for CsgA ThT Assay (10 μM CsgA) % Control AUC at 1005 minutes, 100 μM / remaining activity at 100 µM / CsgA ThT Assay (10 μM CsgA) % Control AUC at 1005 minutes, 100 μM (activity range): compound 100 μM; for remaining activity at 25 µM / CsgA ThT Assay (10 μM CsgA) % Control AUC at 1005 minutes, 25 μM (activity range) / CsgA ThT Assay (10 μM CsgA) % Control AUC at 1005 minutes, 25 μM: compound 25 μM
T1 construct: made in house; host or cells: E. coli NEB 3016 slyD::kan, pET11d
T1 sequence (P28307 23-151): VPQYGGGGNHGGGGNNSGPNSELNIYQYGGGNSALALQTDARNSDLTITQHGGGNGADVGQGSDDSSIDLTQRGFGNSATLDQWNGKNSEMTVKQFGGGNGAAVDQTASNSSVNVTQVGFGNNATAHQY
Method: In vitro ThioflavinT assay to determine effects of compounds on CsgA aggregation. To assess the effects of compounds on aggregation of E. coli CsgA, a cell-free assay was performed using purified CsgA and Thioflavin T. In the assay, histidine-tagged CsgA was over-expressed in E. coli NEB 3016 slyD::kan cells harboring a pET11d vector containing a C-terminal 6× His tag. Following growth in rich media, CsgA production is induced at an OD600 of approximately 1.0 by addition of 0.5 mM IPTG (isopropyl beta-D-1-thiogalactopyranoside) followed by incubation at 37° C. for 1-4 hours with shaking at 200-250 rpm. Bacteria were resuspended in 8 M guanidine hydrochloride in 50 mM potassium phosphate buffer, pH 7.3 and lysed by sonication on ice using three 20 second intervals. The resulting lysate was incubated on a platform rocker for 1 hour at room temperature. After centrifugation at 10,000×g for 20 minutes, the supernatant was further sonicated on ice for three 20 second intervals and then incubated with nickel-nitrilotriacetic acid resin (Sigma) at room temperature for 1 hour in a 50 mL conical tube on a platform rocker. The resin was washed and pelleted 5 times with 45 mL 8 M guanidine in 50 mM potassium phosphate buffer pH 7.3. The resin was further washed and pelleted two times with 8 M guanidine hydrochloride in 50 mM potassium phosphate buffer pH 7.3 containing 12.5 mM imidazole. Purified CsgA protein was eluted two times with 5 mL of 6-8 M guanidine hydrochloride in 50 mM potassium phosphate buffer, pH 7.3 containing 250 mM imidazole. The eluted protein was aliquoted with 150 μL per aliquot, snap frozen in liquid nitrogen, and stored at −80 C. In order to obtain monomeric CsgA, the purified CsgA protein was thawed and passed through two pre-chilled desalting columns (Zeba) to remove imidazole and guanidine. The buffer exchanged protein was loaded onto a 30-kDa centrifugal filter unit (Amicon) and spun for 30 minutes at 7500×g to remove dimers and other oligomers. Protein concentration was assessed by the NanoDrop technique (Thermo Scientific), as is familiar to one skilled in the art. The CsgA aggregation assay was conducted in 96-well black non-binding surface or white untreated microplates with 20-40 μM ThioflavinT, 50 mM potassium phosphate buffer pH 7.3, 1% DMSO, CsgA at 2-20 μM, and compounds at 3.125-200 uM. The vehicle control wells contain all components of the assay except test compounds and represent the level of CsgA aggregation in the absence of any inhibitor or accelerator. Plates were incubated at room temperature in a Tecan Nano F200 plate reader with excitation at 438 nm using a 439 nm filter with a bandwidth of 8 nm, and emission at 495 nm with a 490 nm filter with a bandwidth of 10 nm, or in a SpectraMax M5, SpectraMax M2 or SpectraMax® i3X (Molecular Devices, San Jose, Calif.) spectrophotometer with excitation at 438 nm and emission at 495 nm. During the assay, plates were shaken initially for 5 seconds and subsequently for 3 seconds prior to fluorescent readings. Readings were performed every 15 minutes for up to 1005 minutes. The effect of compounds on CsgA aggregation in the assay was determined with data from 0-17 hours. Fluorescence values for each compound with CsgA were first adjusted by subtracting the average fluorescence of the compound in the absence of CsgA or in the presence of CsgA and compound at time 0 or 15 minutes. The data were analyzed in several ways:
1. The adjusted ThT fluorescence values were normalized by dividing them by the average fluorescence in the vehicle control wells containing CsgA. The median normalized fluorescence from 6-6.5 hours or 8-9 hours with the compound was expressed as a percentage of the median fluorescence observed in vehicle controls over the same time period. Percent inhibition of CsgA aggregation by a compound was determined by subtracting the percent average fluorescence with the compound relative to the vehicle controls from 100%. […]

[1] = test system: CsgA gene expression (csgBAC promoter-GFP reporter) in E. coli UTI89; assay: In vitro live cell fluorescent reporter assay of CsgA transcription (Reporter Assay); format: cell-based
Method: In vitro live cell fluorescent reporter assay to determine effects of compounds on CsgA transcription. To assess the impact of compounds on CsgA gene expression, a live cell assay was performed using an engineered strain of E. coli UTI89 with a fluorescent CsgA gene expression reporter driven by the csgBAC promoter. In the reporter strain, a gene encoding Green Fluorescent Protein (GFP) was placed immediately downstream of the full intergenic region between csgDEF and csgBAC, containing the csgBAC promoter and other transcriptional regulatory elements, and inserted in single copy into the E. coli UTI89 chromosome, as described in Cegelski et. al., “Small-molecule inhibitors target Escherichia coli amyloid biogenesis and biofilm formation,” Nat. Chem. Bio., 25 Oct. 2009. With this construct, GFP expression in the reporter strain was under the same regulation as CsgA expression. The reporter strain was struck out on a YESCA agar plate (1 g/L yeast extract, 10 g/L casamino acids, 20 g/L Bacto Agar) and grown at about 27° C. for 2 days, or until single colonies were sufficiently large to pick. A single colony of the reporter strain was used to inoculate 5 mL of YESCA broth (1 g/L yeast extract, 10 g/L casamino acids), which was grown overnight at about 27° C. The inoculum was diluted 1:10 in YESCA broth and the optical density at 600 nm (OD600) was measured on a SpectraMax M2 or M5e (Molecular Devices, San Jose, Calif.) spectrophotometer in cuvettes. The culture was then further diluted to achieve a final OD600 of 0.003, which was confirmed by measurement of the OD600. Compounds were diluted in dimethyl sulfoxide (DMSO) and plated on black clear-bottomed tissue culture-treated 96-well plates with 1.5 μL/well for final test concentrations from 0.14-100 μM. All assay wells, including vehicle controls and positive controls for inhibition, included 1% DMSO final. Vehicle control wells consisted of DMSO and the reporter strain to assess the expression of the reporter strain in the assay in the absence of any compound. […] 148.5 μL culture at OD600 0.003 in YESCA broth was added to all wells for 150 μL final volume. Plates were incubated at 27° C. for 20 hours, then GFP fluorescence signal for each well was read on a Spectramax M2 or M5e plate reader with excitation at 485 nm, emission at 525 nm, and a cutoff at 515 nm. OD600 for each well was also measured on the Spectramax M2 or M5e plate reader. […] Background fluorescence was subtracted from all wells, then fluorescence signal for each well was normalized to the mean of the vehicle control wells. Normalized dose response curves were plotted for each compound, and compound inhibition of CsgA transcription was determined by assessing the curve-fit IC50, bottom, top, span (top-bottom), and Hill slope using GraphPad Prism software version 8.1.1 (GraphPad Software, San Diego, Calif.). An additional metric used to evaluate compounds was the concentration at which the curve reached 50% of the expression level of the vehicle control. This was written as a custom analysis in GraphPad Prism according to the formula X[50], or the X value at which Y=50, ie, the compound concentration at which fluorescence of the reporter strain was calculated to reach 50% of the vehicle control fluorescence. Separately from the fluorescence data, OD600 values were normalized to the mean of the vehicle control wells, and dose response curves were plotted for each compound. OD600 reduction of greater than 10% indicated compounds had some toxicity or negative impact on bacterial growth. […]

[2] = CsgA 10 μM, black plates, 1005 minutes
[3] = read-out: CsgA ThT Assay (10 μM CsgA) % Control AUC at 1005 minutes, 25 μM (activity range), CsgA 10 μM, black plates, 1005 minutes, class symbol
[4] = read-out: CsgA ThT Assay (10 μM CsgA) % Control AUC at 1005 minutes, 25 μM, mean AUC as % of DMSO control, CsgA 10 μM, black plates, 1005 minutes
[5] = Escherichia coli, read-out: Reporter Assay Abs IC50 (activity range), median Abs IC50 in the CsgA reporter assay, class symbol
[6] = Escherichia coli, read-out: Reporter Assay Abs IC50 (μM), median Abs IC50 in the CsgA reporter assay, N/A = maximum expression reduction is <50% of control
[7] = CsgA 10 μM, black plates, 1005 minutes, class symbol
[8] = read-out: Reporter Assay Abs IC50 (activity range), median Abs IC50 in the CsgA reporter assay, class symbol
[9] = read-out: Reporter Assay Abs IC50, median Abs IC50 in the CsgA reporter assay, N/A = maximum expression reduction is <50% of control
[10] = read-out: CsgA ThT Assay (2 μM CsgA) % Control Bmax 25 μM, activity range, class symbol, CsgA 2 μM, white plates
[11] = read-out: CsgA ThT Assay (2 μM CsgA) % Control Bmax 25 μM, mean Bmax as percentage of DMSO control, CsgA 2 μM, white plates
[12] = read-out: CsgA ThT Assay (2 μM CsgA) % Control Bmax 100 μM, activity range, class symbol, CsgA 2 μM, white plates
[13] = read-out: CsgA ThT Assay (2 μM CsgA) % Control Bmax 100 μM, mean Bmax as percentage of DMSO control, CsgA 2 μM, white plates
[14] = Escherichia coli, read-out: Reporter Assay Abs IC50, activity range, class symbol

SMILES	CsgA ThT Assay (10 μM CsgA) % Control AUC at 1005 minutes, 100 μM (E. coli CsgA; [2]) [%]	remaining activity at 25 µM (E. coli CsgA; [3]) [%]	remaining activity at 25 µM (E. coli CsgA; [4]) [%]	remaining activity at 100 µM (E. coli CsgA; read-out: CsgA ThT Assay (10 μM CsgA) % Control AUC at 1005 minutes, 100 μM (activity range), CsgA 10 μM, black plates, 1005 minutes, class symbol) [%]	IC50 [1, 5] [µM]	IC50 [1, 6] [µM]	CsgA ThT Assay (10 μM CsgA) % Control AUC at 1005 minutes, 25 μM (activity range) (E. coli CsgA; [7])	CsgA ThT Assay (10 μM CsgA) % Control AUC at 1005 minutes, 100 μM (activity range) (E. coli CsgA; [7])	CsgA ThT Assay (10 μM CsgA) % Control AUC at 1005 minutes, 25 μM (E. coli CsgA; [2]) [%]	IC50 [1, 8] [µM]	IC50 [1, 9] [µM]	remaining activity at 25 µM (E. coli CsgA; [10]) [%]	remaining activity at 25 µM (E. coli CsgA; [11]) [%]	remaining activity at 100 µM (E. coli CsgA; [12]) [%]	remaining activity at 100 µM (E. coli CsgA; [13]) [%]	IC50 [1, 14] [µM]
CCCCN1CC(C(=O)O)n2c(c(-c3cccc(C(F)(F)F)c3)c(Cc3cccc4ccccc34)cc2=O)S1(=O)=O (single isomer, unassigned) [Compound 021a, 2-butyl-8-(naphthalen-1-ylmethyl)-6-oxo-9-(3-(trifluoromethyl)phenyl)-3,4-dihydro-2H,6H-pyrido[1,2-e][1,2,5]thiadiazine-4-carboxylic acid 1,1-dioxide]	73	31 to 60	36	> 60	1.3 to 4.5	3.3	–	–	–	–	–	–	–	–	–	–
CCCCN1CC(C(=O)O)n2c(c(-c3cccc(C(F)(F)F)c3)c(Cc3cccc4ccccc34)cc2=O)S1(=O)=O (single isomer, unassigned) [Compound 021b, 2-butyl-8-(naphthalen-1-ylmethyl)-6-oxo-9-(3-(trifluoromethyl)phenyl)-3,4-dihydro-2H,6H-pyrido[1,2-e][1,2,5]thiadiazine-4-carboxylic acid 1,1-dioxide]	99	–	–	–	–	–	(++) (% control AUC of 31 to 60%)	(+) (% control AUC of greater than 60%)	36	1.3 to 4.5	2.1	–	–	–	–	–
CCCCCN1CC(C(=O)O)n2c(c(-c3cccc(C(F)(F)F)c3)c(Cc3cccc4ccccc34)cc2=O)S1(=O)=O (single isomer, unassigned) [Compound 025b, 8-(naphthalen-1-ylmethyl)-6-oxo-2-pentyl-9-(3-(trifluoromethyl)phenyl)-3,4-dihydro-2H,6H-pyrido[1,2-e][1,2,5]thiadiazine-4-carboxylic acid 1,1-dioxide]	107	–	–	–	–	–	(++) (% control AUC of 31 to 60%)	(+) (% control AUC of greater than 60%)	46	1.3 to 4.5	2.4	–	–	–	–	–
COc1ccc(CN2C[C@H](C(=O)O)n3c(c(-c4cccc(C(F)(F)F)c4)c(Cc4cccc5ccccc45)cc3=O)S2(=O)=O)cc1 (single isomer, unassigned) [Compound 026b]	–	31 to 60	47	–	1.3 to 4.5	2.8	–	–	–	–	–	–	–	–	–	–
O=C(O)[C@@H]1CN(Cc2ccccc2)c2c(-c3cccc(C(F)(F)F)c3)c(Cc3cccc4ccccc34)c(Br)c(=O)n21 (single isomer, unassigned) [Compound 189]	–	–	–	–	–	1.4	–	–	–	–	–	31 to 60	58	31 to 60	49	1.3 to 4.5
O=C(O)[C@H]1CN(Cc2ccccc2)c2c(-c3cccc(C(F)(F)F)c3)c(Cc3cccc4ccccc34)c(Br)c(=O)n21 (single isomer, unassigned) [Compound 190]	–	–	–	–	–	1.6	–	–	–	–	–	> 60	63	31 to 60	56	1.3 to 4.5

Reference: patent US20230131899A1, “INHIBITORS OF MICROBIALLY INDUCED AMYLOID” (Axial Therapeutics, Inc., priority 2020, published 2023)
